Assay results published in US10526311B2 (ASTEX THERAPEUTICS LIMITED, priority 2015, dated 2020).
pIC50: −log10 of the molar value. Read-outs that look alike come from different tables or passages of the source. Values belong to the molecule of their own block, whether it stands above or below them.

How the values were obtained:
[1] = test system: SJSA-1; test: Protocol B: SJSA-1 CellTiter-Glo cell viability; conditions: for IC50: read-out: SJSA1 IC50 (μM) (Protocol B), SJSA-1, Protocol B (CellTiter-Glo), 72 hrs
[2] = test system: SN40R2; test: Protocol B: SN40R2 CellTiter-Glo cell viability; conditions: 72 h; for IC50: read-out: SN40R2 IC50 (μM) (Protocol B)
[3] = target: MDM2-p53 interaction (in vitro translated MDM2, biotinylated IP3 peptide) (Homo sapiens, UniProt Q00987); test: MDM2-p53 interaction 96-well plate binding assay (ELISA)
Chain of MDM2-p53 interaction (in vitro translated MDM2, biotinylated IP3 peptide) (Q00987 whole entry): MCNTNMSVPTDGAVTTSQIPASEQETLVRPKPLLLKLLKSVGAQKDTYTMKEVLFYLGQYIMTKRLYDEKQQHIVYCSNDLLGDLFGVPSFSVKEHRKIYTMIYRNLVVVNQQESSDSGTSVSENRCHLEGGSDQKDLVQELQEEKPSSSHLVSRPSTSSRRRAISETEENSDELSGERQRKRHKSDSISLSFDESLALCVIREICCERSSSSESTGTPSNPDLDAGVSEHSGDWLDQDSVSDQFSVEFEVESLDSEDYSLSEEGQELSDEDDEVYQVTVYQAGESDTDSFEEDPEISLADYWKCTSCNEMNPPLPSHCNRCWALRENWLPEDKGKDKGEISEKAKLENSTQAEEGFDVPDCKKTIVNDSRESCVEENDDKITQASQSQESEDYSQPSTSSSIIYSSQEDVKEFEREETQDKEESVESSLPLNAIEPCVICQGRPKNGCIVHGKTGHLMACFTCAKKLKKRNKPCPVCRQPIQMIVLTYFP

[4] = test system: SJSA-1 (MDM2 amplified, p53 wild-type osteosarcoma); test: Protocol A: SJSA-1 growth inhibition (SRB); conditions: Homo sapiens, SJSA-1, 72 h; for pIC50: read-out: SJSA-1 IC50 (Protocol A), SJSA-1 cells, SRB, 72 hrs; for IC50: read-out: SJSA-1 IC50 (μM) (Protocol A), SJSA-1, Protocol A (SRB), 72 hrs
[5] = test system: SN40R2 (MDM2 amplified, p53 mutated osteosarcoma); test: Protocol A: SN40R2 growth inhibition (SRB); conditions: 72 h; for IC50: read-out: SN40R2 IC50 (μM) (Protocol A); for inhibition at 30 µM: read-out: SN40R2 (Protocol A) % at concentration
[6] = read-out: SJSA1 IC50 (Protocol B), SJSA-1 cells, CellTiter-Glo, 72 hrs
[7] = read-out: SN40R2 IC50 (Protocol B), SN40R2 cells, CellTiter-Glo, 72 hrs
[8] = Homo sapiens, SJSA-1, 72 h, read-out: SJSA1 IC50 (Protocol B), SJSA-1 cells, CellTiter-Glo, 72 hrs
[9] = read-out: SN40R2 IC50 (Protocol B)

pIC50 [1, 8]: 7.44
inhibition at 0.001 µM ([3]; @ 0.0010 μM, read-out: MDM2 % @ concentration): 75%
pIC50 [4]: 7.15
pIC50 ([5]; read-out: SN40R2 IC50 (Protocol A)): 4.55
SMILES: CC(=O)N1CCC(C(C)(O)c2cc(F)c3c(c2)C(=O)N(Cc2ccc(Cl)cn2)[C@@]3(OCC2(C#N)CC2)c2ccc(Cl)cc2)CC1 (single isomer, unassigned) [Example 301]
pIC50 [2, 9]: 4.92

pIC50 [1, 8]: 6.06
SMILES: CC(O)(c1cc(F)c2c(c1)C(=O)N(Cc1ccc(Cl)cn1)[C@@]2(OCC1(C#N)CC1)c1ccc(Cl)cc1)C1CCN(CCO)CC1 (single isomer, unassigned) [Example 420]
pIC50 [2, 9]: 5.36

IC50 [4]: 0.19 µM
IC50 [5]: 13 µM
SMILES: CCC(O)(c1cc(F)c2c(c1)C(=O)N(Cc1ncc(Cl)cn1)[C@@]2(O[C@H]1CCOC1)c1ccc(Cl)cc1)C1(F)CCNCC1 (single isomer, unassigned) [Example 541]
IC50 [2]: 10 µM

IC50 ([1]; Homo sapiens, SJSA-1, 72 h): 0.066 µM
IC50 [4]: 0.028 µM
IC50 [5]: 21 µM
SMILES: CCC(O)(c1cc(F)c2c(c1)C(=O)N(Cc1ncc(C#N)cn1)[C@@]2(OC)c1ccc(Cl)cc1)C1(F)CCN(C)CC1 (single isomer, unassigned) [Example 575]

pIC50 [1, 8]: 6.55
pIC50 [3]: 8.42
pIC50 [4]: 6.70
SMILES: [2H]C([2H])(O)C1(C([2H])([2H])O[C@]2(c3ccc(Cl)cc3)c3c(F)cc(C(C)(C)O)cc3C(=O)N2Cc2ccc(C#N)cn2)CC1 [Example 5, 6-{[(1R)-1-(4-Chlorophenyl)-7-fluoro-1-({1-[hydroxy(^2H2)methyl]cyclopropyl}(^2H2)methoxy)-5-(2-hydroxypropan-2-yl)-3-oxo-2,3-dihydro-1H-isoindol-2-yl]methyl}pyridine-3-carbonitrile]
inhibition at 30 µM [5]: 20%

pIC50 [1, 8]: 6.74
pIC50 [3]: 8.29
pIC50 [4]: 6.68
SMILES: CC(C)(O)c1cc(F)c2c(c1)C(=O)N(Cc1ccc(C#N)cn1)[C@@]2(OCC1(CO)CC1)c1ccc(Cl)cc1 [Example 36, 6-{[(1R)-1-(4-chlorophenyl)-7-fluoro-1-{[1-(hydroxymethyl)cyclopropyl]methoxy}-5-(2-hydroxypropan-2-yl)-3-oxo-2,3-dihydro-1H-isoindol-2-yl]methyl}pyridine-3-carbonitrile]
inhibition at 30 µM [5]: 13%

IC50 ([1]; Homo sapiens, SJSA-1, 72 h): 0.034 µM
IC50 [4]: 0.039 µM
IC50 [5]: 48 µM
SMILES: CCC(O)(c1cc(F)c2c(c1)C(=O)N(Cc1ncc(C#N)cn1)[C@@]2(OC)c1ccc(Cl)cc1)[C@H]1CC[C@H](O)CC1 (stereo partly drawn) [Example 504, 2-{[(1R)-1-(4-chlorophenyl)-7-fluoro-5-{1-hydroxy-1-[trans-4-hydroxycyclohexyl]propyl}-1-methoxy-3-oxo-2,3-dihydro-1H-isoindol-2-yl]methyl}pyrimidine-5-carbonitrile]

IC50 ([1]; Homo sapiens, SJSA-1, 72 h): 0.0064 µM
IC50 [4]: 0.056 µM
IC50 [5]: 27 µM
SMILES: CC[C@@](O)(c1cc(F)c2c(c1)C(=O)N(Cc1ncc(Cl)cn1)[C@@]2(OCC1(CO)CC1)c1ccc(Cl)cc1)C1CCN(C)CC1 [Example 556, (3R)-3-(4-chlorophenyl)-2-[(5-chloropyrimidin-2-yl)methyl]-4-fluoro-6-[(1S)-1-hydroxy-1-(1-methylpiperidin-4-yl)propyl]-3-{[1-(hydroxymethyl)cyclopropyl]methoxy}-2,3-dihydro-1H-isoindol-1-one]

Further lines, the molecule ahead of its results:

SMILES: CO[C@]1(c2ccc(Cl)cc2)c2c(F)cc(C(C)(O)c3cn(C)c(C)n3)cc2C(=O)N1Cc1ccc(Cl)cn1 (single isomer, unassigned) [Example 162]
pIC50 [1, 6]: 6.66
pIC50 [2, 7]: 4.89

SMILES: CO[C@]1(c2ccc(Cl)cc2)c2c(F)cc(C(C)(O)C3CCN(C)CC3)cc2C(=O)N1Cc1ccc(Cl)cn1 (single isomer, unassigned) [Example 304]
pIC50 [2, 7]: 5.05

SMILES: CO[C@]1(c2ccc(Cl)cc2)c2c(F)cc(C(C)(O)C3CN(C)C3)cc2C(=O)N1Cc1ccc(Cl)cn1 (single isomer, unassigned) [Example 307]
pIC50 [1, 8]: 5.72
pIC50 [2, 7]: 4.96

SMILES: CO[C@]1(c2ccc(Cl)cc2)c2c(F)cc(C(C)(O)c3cnn(C4CN(C(=O)OC(C)(C)C)C4)c3)cc2C(=O)N1Cc1ccc(Cl)cn1 (single isomer, unassigned) [Example 458]
IC50 [2]: 12 µM

SMILES: CO[C@]1(c2ccc(Cl)cc2)c2c(F)cc(C(C)(O)c3ncc[nH]3)cc2C(=O)N1Cc1ccc(Cl)cn1 (stereo partly drawn) [Example 163, (3R)-3-(4-chlorophenyl)-2-[(5-chloropyridin-2-yl)methyl]-4-fluoro-6-[1-hydroxy-1-(1H-imidazol-2-yl)ethyl]-3-methoxy-2,3-dihydro-1H-isoindol-1-one]
pIC50 [1, 8]: 5.51
pIC50 [2, 7]: 4.89

SMILES: CO[C@]1(c2ccc(Cl)cc2)c2c(F)cc(C(C)(O)c3nccs3)cc2C(=O)N1Cc1ccc(Cl)cn1 (stereo partly drawn) [Example 165, (3R)-3-(4-Chlorophenyl)-2-[(5-chloropyridin-2-yl)methyl]-4-fluoro-6-[1-hydroxy-1-(1,3-thiazol-2-yl)ethyl]-3-methoxy-2,3-dihydro-1H-isoindol-1-one]
pIC50 [1, 6]: 5.85
pIC50 [2, 7]: 4.89

SMILES: CO[C@]1(c2ccc(Cl)cc2)c2c(F)cc(C(C)(O)C3CCN(c4ncccn4)CC3)cc2C(=O)N1Cc1ccc(Cl)cn1 (stereo partly drawn) [Example 286, (3R)-3-(4-chlorophenyl)-2-[(5-chloropyridin-2-yl)methyl]-4-fluoro-6-{1-hydroxy-1-[1-(pyrimidin-2-yl)piperidin-4-yl]ethyl}-3-methoxy-2,3-dihydro-1H-isoindol-1-one]
pIC50 [2, 7]: 4.92

SMILES: CO[C@]1(c2ccc(Cl)cc2)c2c(F)cc(C(C)(O)C3CCN(C(=O)CN(C)C)CC3)cc2C(=O)N1Cc1ccc(Cl)cn1 (stereo partly drawn) [Example 299, (3R)-3-(4-chlorophenyl)-2-[(5-chloropyridin-2-yl)methyl]-6-(1-{1-[2-(dimethylamino)acetyl]piperidin-4-yl}-1-hydroxyethyl)-4-fluoro-3-methoxy-2,3-dihydro-1H-isoindol-1-one]
pIC50 [1, 8]: 5.70
pIC50 [2, 7]: 5.10
